Columns and labels:
[1] = tested on: Botrytis cinerea; assay: In vivo preventive test on Botrytis cinerea (grey mould); settings: 500 ppm of active ingredient, preventive spray on gherkin or cabbage, evaluated 4 to 5 days after inoculation, read-out: efficacy
Procedure: (§1) The active ingredients were made soluble and homogenized in a mixture of Dimethyl sulfoxide/Acetone//Tween® 80 and then diluted in water to the desired concentration. The young plants of gherkin or cabbage were treated by spraying the active ingredient prepared as described above. Control plants were treated only with an aqueous solution of Acetone/Dimethyl sulfoxide/Tween® 80. After 24 hours, the plants were contaminated by spraying the leaves with an aqueous suspension of Botrytis cinerea spores.

[2] = tested on: Sphaerotheca fuliginea; assay: In vivo preventive test on Sphaerotheca fuliginea (powdery mildew on cucurbits); settings: Podosphaera fuliginea, 192 h; 500 ppm of active ingredient; preventive spray on gherkin; evaluated 8 days after inoculation; read-out: efficacy
Procedure: as §1, with “gherkin” for “gherkin or cabbage”, “Sphaerotheca fuliginea” for “Botrytis cinerea”

[3] = tested on: Pyrenophora teres; assay: In vivo preventive test on Pyrenophora teres (net blotch on barley); settings: 240 h, 500 ppm of active ingredient, preventive spray on barley, evaluated 10 days after inoculation, read-out: efficacy
Procedure: as §1, with “barley” for “gherkin or cabbage”, “Pyrenophora teres” for “Botrytis cinerea”

[4] = Measurement of LogP values by HPLC on reversed phase columns (EEC directive 79/831 Annex V.A8); assay type: physicochemical; settings: method [a]: LC-UV, acidic range, 0.1% formic acid in water and acetonitrile; compounds of formula (I-1), Table 1
Procedure: Calibration was done with straight-chain alkan2-ones (with 3 to 16 carbon atoms) with known LogP values (measurement of LogP values using retention times with linear interpolation between successive alkanones). Lambda-max-values were determined using UV-spectra from 200 nm to 400 nm and the peak values of the chromatographic signals

[5] = tested on: Septoria tritici; assay: Septoria tritici in vitro cell test; assay type: cell-based; settings: Zymoseptoria tritici, 168 h; 20 ppm of active ingredient; liquid culture, 7 days incubation; read-out: efficacy (inhibition of fungal growth)
Procedure: • Solvent: DMSO • Culture medium: 1 g KH2PO4 (VWR), 1 g K2HPO4 (VWR), 0.5 g Urea (VWR), 3 g KNO3 (Prolabo), 10 g saccharose (VWR), 0.5 g MgSO4, 7H2O (Sigma), 0.07 g CaCl2, 2H2O (Prolabo), 0.2 mg MnSO4, H2O (Sigma), 0.6 mg CuSO4, 5H2O (Sigma), 7.9 mg ZnSO4, 7H2O (Sigma), 0.1 mg H3BO3 (Merck), 0.14 mg NaMoO4, 2H2O (Sigma), 2 mg thiamine (Sigma), 0.1 mg biotine (VWR), 4 mg FeSO4, 7H2O (Sigma), QSP 1 liter • Inoculum: spore suspension Fungicides were solubilized in DMSO and the solution used to prepare the required range of concentrations. […] A spore suspension of S. tritici was prepared and diluted to the desired spore density. Fungicides were evaluated for their ability to inhibit spore germination and mycelium growth in liquid culture assay. The compounds were added in the desired concentration to the culture medium with spores. […] Inhibition of fungal growth was determined by comparing the absorbance values in wells containing the fungicides with the absorbance in control wells without fungicides.

[6] = tested on: Alternaria brassicae; assay: In vivo preventive test on Alternaria brassicae (leaf spot on radish or cabbage); settings: 144 h, 500 ppm of active ingredient, preventive spray on radish or cabbage, evaluated 6 days after inoculation, read-out: efficacy
Procedure: as §1, with “radish” for “gherkin”, “Alternaria brassicae” for “Botrytis cinerea”

[7] = tested on: Pyricularia Oryzae; assay: microbe, parasite or virus in culture; assay type: cell-based; settings: 120 h, read-out: efficacy (inhibition of fungal growth)
[8] = tested on: Alternaria alternata; assay: Alternaria alternata in vitro cell test; assay type: cell-based; settings: 120 h, 20 ppm of active ingredient, liquid culture, 5 days incubation, read-out: efficacy (inhibition of fungal growth)
Procedure: (§2) • Solvent: DMSO • Culture medium: 14.6 g anhydrous D-glucose (VWR), 7.1 g Mycological Peptone (Oxoid), 1.4 g granulated Yeast Extract (Merck), QSP 1 liter • Inoculum: spores suspension Fungicides were solubilized in DMSO and the solution used to prepare the required range of concentrations. […] A spore suspension of A. alternata was prepared and diluted to the desired spore density. Fungicides were evaluated for their ability to inhibit spore germination and mycelium growth in liquid culture assay. The compounds were added in the desired concentration to the culture medium with spores. After 5 days incubation, fungi-toxicity of compounds was determined by spectrometric measurement of mycelium growth. Inhibition of fungal growth was determined by comparing the absorbance values in wells containing the fungicides with the absorbance in control wells without fungicides.

[9] = tested on: Colletotrichum lindemuthianum; assay: In vivo preventive test on Colletotrichum lindemuthianum (leaf spot on bean); settings: 168 h, 500 ppm of active ingredient, preventive spray on bean, evaluated 7 days after inoculation, read-out: efficacy
Procedure: as §1, with “bean” for “gherkin or cabbage”, “Colletotrichum lindemuthianum” for “Botrytis cinerea”

[10] = tested on: Colletotrichum lindemuthianum; assay: Colletotrichum lindemuthianum in vitro cell test; assay type: cell-based; settings: 144 h, 20 ppm of active ingredient, liquid culture, 6 days incubation, read-out: efficacy (inhibition of fungal growth)
Procedure: as §2, with “of C. lindemuthianum” for “of A. alternata”, “inhibit spores” for “inhibit spore”, “After 6” for “After 5”

[11] = tested on: Fusarium culmorum; assay: Fusarium culmorum in vitro cell test; assay type: cell-based; settings: 96 h, 20 ppm of active ingredient, liquid culture, 4 days incubation, read-out: efficacy (inhibition of fungal growth)
Procedure: • Solvent: DMSO • Culture medium: 14.6 g anhydrous D-glucose (VWR), 7.1 g Mycological Peptone (Oxoid), 1.4 g granulated Yeast Extract (Merck), QSP 1 liter • Inoculum: spore suspension • Fungicides were solubilized in DMSO and the solution used to prepare the required range of concentrations. The final concentration of DMSO used in the assay was ≤1%.
A spore suspension of F. culmorum was prepared and diluted to the desired spore density.
Fungicides were evaluated for their ability to inhibit spore germination and mycelium growth in liquid culture assay. The compounds were added in the desired concentration to the culture medium with spores. After 4 days incubation, fungi-toxicity of compounds was determined by spectrometric measurement of mycelium growth. Inhibition of fungal growth was determined by comparing the absorbance values in wells containing the fungicides with the absorbance in control wells without fungicides.

SMILES	pest or weed control at 500 ppm [1] [%]	pest or weed control at 500 ppm [2] [%]	pest or weed control at 500 ppm [3] [%]	chromatographic logP [4]	inhibition at 20 ppm [5] [%]	pest or weed control at 500 ppm [6] [%]	inhibition at 20 ppm [7] [%]	inhibition at 20 ppm [8] [%]	pest or weed control at 500 ppm [9] [%]	inhibition at 20 ppm [10] [%]	inhibition at 20 ppm [11] [%]
C=C(OCC)c1cc(C2=NOCC(Cc3ccc(Cl)cc3Cl)N2)c(Oc2cccc(C3CC3)c2F)nn1 (racemic) [Compound I-020, (5RS)-3-[3-(3-cyclopropyl-2-fluorophenoxy)-6-(1-ethoxyvinyl)pyridazin-4-yl]-5-(2,4-dichlorobenzyl)-5,6-dihydro-4H-1,2,4-oxadiazine]	90 to 100	90 to 100	90 to 100	5.41	90 to 100	90 to 100	90 to 100	90 to 100	90 to 100	90 to 100	–
C=C(OCC)c1cc(C2=NOCC(Cc3ccc(Cl)cc3Cl)N2)c(Oc2cccc(C3CC3)c2)nn1 (racemic) [Compound I-019, (5RS)-3-[3-(3-cyclopropylphenoxy)-6-(1-ethoxyvinyl)pyridazin-4-yl]-5-(2,4-dichlorobenzyl)-5,6-dihydro-4H-1,2,4-oxadiazine]	90 to 100	90 to 100	90 to 100	5.19	–	90 to 100	90 to 100	90 to 100	90 to 100	90 to 100	70 to 79
Cc1cc(C)cc(CC2CON=C(c3cc(C)nnc3Oc3cccc(C)c3F)N2)c1 (racemic) [Compound I-008, (5RS)-5-(3,5-dimethylbenzyl)-3-[3-(2-fluoro-3-methylphenoxy)-6-methylpyridazin-4-yl]-5,6-dihydro-4H-1,2,4-oxadiazine]	90 to 100	90 to 100	90 to 100	3.85	90 to 100	90 to 100	90 to 100	90 to 100	90 to 100	90 to 100	–
Cc1ccc(C)c(CC2CON=C(c3cc(C)nnc3Oc3cccc(C)c3F)N2)c1 (racemic) [Compound I-013, (5RS)-5-(2,5-dimethylbenzyl)-3-[3-(2-fluoro-3-methylphenoxy)-6-methylpyridazin-4-yl]-5,6-dihydro-4H-1,2,4-oxadiazine]	90 to 100	90 to 100	80 to 89	3.69	90 to 100	90 to 100	80 to 89	90 to 100	90 to 100	90 to 100	–
CC(O)c1cc(C2=NOCC(Cc3ccc(Cl)cc3Cl)N2)c(Oc2cccc(C3CC3)c2F)nn1 (stereo not shown) [Compound I-023, 1-{6-(3-cyclopropyl-2-fluorophenoxy)-5-[5-(2,4-dichlorobenzyl)-5,6-dihydro-4H-1,2,4-oxadiazin-3-yl]pyridazin-3-yl}ethanol]	90 to 100	90 to 100	90 to 100	3.87	–	90 to 100	90 to 100	90 to 100	90 to 100	90 to 100	90 to 100
Cc1ccc(CC2CON=C(c3cc(C)nnc3Oc3cccc(C4(F)CC4)c3)N2)c(C)c1 (racemic) [Compound I-015, (5RS)-5-(2,4-dimethylbenzyl)-3-{3-[3-(1-fluorocyclopropyl)phenoxy]-6-methylpyridazin-4-yl}-5,6-dihydro-4H-1,2,4-oxadiazine]	90 to 100	90 to 100	90 to 100	3.78	–	90 to 100	90 to 100	90 to 100	90 to 100	90 to 100	80 to 89
Cc1cc(C)cc(CC2CON=C(c3cc(C)nnc3Oc3cccc(Cl)c3)N2)c1 (racemic) [Compound I-009, (5RS)-3-[3-(3-chlorophenoxy)-6-methylpyridazin-4-yl]-5-(3,5-dimethylbenzyl)-5,6-dihydro-4H-1,2,4-oxadiazine]	–	–	–	3.87	90 to 100	–	90 to 100	90 to 100	–	90 to 100	90 to 100
Cc1ccc(CC2CON=C(c3cc(C(C)O)nnc3Oc3cccc(C4CC4)c3)N2)c(C)c1 (stereo not shown) [Compound I-016, 1-{6-(3-cyclopropylphenoxy)-5-[5-(2,4-dimethylbenzyl)-5,6-dihydro-4H-1,2,4-oxadiazin-3-yl]pyridazin-3-yl}ethanol]	90 to 100	90 to 100	80 to 89	3.55	90 to 100	90 to 100	90 to 100	90 to 100	90 to 100	90 to 100	–

— patent publication US12543738B2 (Bayer Aktiengesellschaft, priority 2020, dated 2026)
